Assay results published in the supplement of paper PMC10883282.

Tests used:
Assay in all cases: relative viability vs DMSO control (72 h) (fraction); higher = more viable cells
[1] = tested on: SYO-1
How it was run: (§1)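 Sarcoma cell lines were grown in 384-well plates seeded toward 80–90% confluence and exposed 24 h later to serially diluted compound. After 72 h at 37 °C and 5% CO2, with 0.1% DMSO vehicle and a 5 µM positive control on the plates, ATPLite was read. Relative viability, given as percent growth averaged over up to triplicate wells, was rescaled so that 1 is full and 0 is none.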

[2] = tested on: KHOS-240S
How it was run: as §1

[3] = tested on: SW1353
How it was run: as §1

[4] = tested on: RD
How it was run: as §1

[5] = tested on: MES-SA
How it was run: as §1

CC(C)(C)c1nc(-c2cccc(NS(=O)(=O)c3c(F)cccc3F)c2F)c(-c2ccnc(N)n2)s1 [Dabrafenib]
relative viability
Conditions | [1] | [2] | [3] | [4] | [5]
0.00017 µM | 0.985 | 1.07 | 1.02 | 1.07 | 0.944
0.00051 µM | 0.9278 | 1.06 | 1.01 | 1.07 | 0.921
0.00152 µM | 0.926 | 1.04 | 0.957 | 1.07 | 0.908
0.00457 µM | 0.911 | 1.03 | 0.959 | 1.11 | 0.905
0.01372 µM | 0.92 | 1.01 | 0.9603 | 1.12 | 0.909
0.04115 µM | 0.919 | 1 | 0.936 | 1.1 | 0.883
0.1235 µM | 0.898 | 1.03 | 0.898 | 1.1 | 0.733
0.3704 µM | 0.939 | 1.01 | 0.875 | 0.989 | 0.53
1.111 µM | 0.857 | 0.975 | 0.859 | 0.915 | 0.504
3.333 µM | 0.871 | 0.964 | 0.89 | 0.871 | 0.744
10 µM | 0.816 | 0.854 | 0.988 | 0.846 | 0.745

N#CCNC(=O)c1ccc(-c2ccnc(Nc3ccc(N4CCOCC4)cc3)n2)cc1 [Momelotinib]
relative viability
Conditions | [1] | [2] | [3] | [4] | [5]
0.00017 µM | 1.02 | 1.05 | 1.1 | 0.971 | 0.942
0.00051 µM | 1.02 | 1.03 | 1.05 | 0.998 | 0.971
0.00152 µM | 1.01 | 1.08 | 1.07 | 0.987 | 0.9306
0.00457 µM | 1.02 | 1.05 | 1.07 | 1.03 | 0.952
0.01372 µM | 0.985 | 1.08 | 1.06 | 0.995 | 0.934
0.04115 µM | 1.01 | 1.03 | 1.04 | 1.02 | 0.881
0.1235 µM | 0.933 | 0.992 | 1.03 | 1.041 | 0.84
0.3704 µM | 0.809 | 0.92 | 0.963 | 1.04 | 0.786
1.111 µM | 0.643 | 0.789 | 0.7816 | 1.02 | 0.685
3.333 µM | 0.503 | 0.768 | 0.739 | 0.994 | 0.616
10 µM | 0.289 | 0.725 | 0.511 | 0.905 | 0.378

COCCNc1cc(NC(=O)N2CCCc3cc(CN4CCN(C)CC4=O)c(C=O)nc32)ncc1C#N [Roblitinib]
relative viability
Conditions | [1] | [2] | [3] | [4] | [5]
0.00017 µM | 0.933 | 1.04 | 0.959 | 1.08 | 0.912
0.00051 µM | 0.931 | 1.04 | 0.935 | 1.074 | 0.892
0.00152 µM | 0.9221 | 1.026 | 0.899 | 1.053 | 0.878
0.00457 µM | 0.92 | 1.04 | 0.95 | 1.08 | 0.885
0.01372 µM | 0.914 | 1.02 | 0.953 | 1.08 | 0.883
0.04115 µM | 0.889 | 1.03 | 0.953 | 1.09 | 0.884
0.1235 µM | 0.879 | 1.035 | 0.942 | 1.1 | 0.879
0.3704 µM | 0.855 | 1.03 | 0.958 | 1.118 | 0.889
1.111 µM | 0.867 | 1 | 0.922 | 1.04 | 0.882
3.333 µM | 0.845 | 0.963 | 0.949 | 1.08 | 0.839
10 µM | 0.87 | 0.967 | 0.961 | 1.01 | 0.79

CCN1C(=O)N(c2c(F)c(OC)cc(OC)c2F)Cc2cnc3[nH]c(CN4CCOCC4)cc3c21 [Pemigatinib]
relative viability
Conditions | [1] | [2] | [3] | [4] | [5]
0.00017 µM | 0.97 | 1.03 | 1.06 | 1.02 | 0.912
0.00051 µM | 0.962 | 1.03 | 1.02 | 1.07 | 0.9387
0.00152 µM | 0.89 | 0.999 | 1.02 | 1.06 | 0.937
0.00457 µM | 0.86 | 1 | 0.964 | 1.06 | 0.914
0.01372 µM | 0.774 | 0.943 | 0.886 | 1.04 | 0.91
0.04115 µM | 0.763 | 0.917 | 0.879 | 1.04 | 0.826
0.1235 µM | 0.733 | 0.884 | 0.863 | 1.03 | 0.732
0.3704 µM | 0.725 | 0.862 | 0.843 | 1.04 | 0.7701
1.111 µM | 0.687 | 0.841 | 0.836 | 0.946 | 0.641
3.333 µM | 0.652 | 0.789 | 0.716 | 0.7043 | 0.397
10 µM | 0.635 | 0.687 | 0.539 | 0.665 | 0.376
